Laboratory results published in the METLIN SMRT retention time set (Domingo-Almenara et al. 2019).

Experiment: gradient 5% acetonitrile 3 min, to 50% in 2 min, to 85% in 15 min, held 3 min, 100 µL/min
Conditions: column: Zorbax Extend-C18 2.1 x 50 mm; eluents: water / acetonitrile, 0.1% formic acid
Outline: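 Standards, all pure, were combined into mixtures of ~100 molecules and run at 100 μL/min on a Zorbax Extend-C18 column (2.1 × 50 mm, 1.8 μm) with water and acetonitrile, each containing 0.1% formic acid. A coupled quadrupole time-of-flight mass spectrometer operated in positive and negative ionization mode. Retention time values come from computationally picked adduct peaks, each inspected manually.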

`CCNC(=O)c1sc2nc(-c3ccc(OC)cc3)c(NCCOC)n2c1C` showed an RP-LC retention time of 704 s.

`CCc1nnc(NC(=O)c2ccoc2COc2ccc(C)cc2)s1` gave an RP-LC retention time of 803 s.

Work on `CCN(CC)c1ncnc2c(-c3ccccc3)cn(CC(=O)NC(C)C)c12` yielded an RP-LC retention time of 686 s.

`COc1cc(-n2c(=S)[nH]c3ccccc3c2=O)c(Cl)cc1Cl` gave an RP-LC retention time of 923 s.

Work on `O=c1n(Cc2cccc(C(F)(F)F)c2)nc2ccc(S(=O)(=O)N3CCCC3)cn12` yielded an RP-LC retention time of 938 s.

`O=C(NCc1ccco1)c1ccc2c(c1)CCCN2S(=O)(=O)c1ccccc1` gave an RP-LC retention time of 914 s.

`O=C1CSC(c2ccccc2Cl)c2cc(Cl)ccc2N1` (stereo unspecified) gave an RP-LC retention time of 987 s.

In the case of `O=C(Nc1nc(-c2ccccc2)cs1)c1ccc(S(=O)(=O)N2CCCCC2)cc1`, the RP-LC retention time is reported as 1150 s.

In the case of `C[C@H]1CN(C(=O)Cc2ccccc2F)C[C@@H]1c1nc(-c2cccnc2)no1`, the RP-LC retention time is reported as 795 s.

Work on `O=C(Cn1nc2n(c1=O)CCCCC2)Nc1cccc(Cl)c1` yielded an RP-LC retention time of 730 s.

`CCN(CC)S(=O)(=O)c1ccc(-n2cnc(C(=O)Nc3cc(C(C)(C)C)ccc3O)c2)cc1` showed an RP-LC retention time of 1060 s.

`CCOCCOC1CCN(C(=O)c2sccc2C)CC1` gave an RP-LC retention time of 741 s.

`CC(C)(C)c1cc(NC(=O)CSCc2ccccc2)n(CCO)n1` gave an RP-LC retention time of 772 s.

`COc1cccc(Cn2c(N3CCSCC3)nc(C)cc2=O)c1` showed an RP-LC retention time of 869 s.

For `Cc1ccc2c(c1)N(CC(=O)NC1CC1)C(=O)C(C)O2` (stereo unspecified), the RP-LC retention time was 738 s.

`O=C(c1ccc(Cl)cc1)N1CCC2(CC1)N=C(c1ccccc1)NO2` gave an RP-LC retention time of 824 s.

`COC(=O)CNC(=O)NCCc1noc(C2CC2)n1` gave an RP-LC retention time of 598 s.

`CCn1cc(S(=O)(=O)N2CCC(Cc3nc(-c4cccnc4)n[nH]3)C2)cn1` (stereo unspecified) showed an RP-LC retention time of 592 s.

Compound `CCCC(NC(=O)c1cc(F)cc(F)c1)C(=O)Nc1nc2ccccc2[nH]1` (stereo unspecified) has an RP-LC retention time of 733 s.

Work on `O=C(Nc1cccc(F)c1)N1CCN(c2cc(-c3ccncc3)[nH]n2)CC1` yielded an RP-LC retention time of 606 s.

For `Cc1noc(C)c1-c1ccc(S(=O)(=O)NC2CCCc3ccccc32)cc1` (stereo unspecified), the RP-LC retention time was 1040 s.

With `O=C(CCc1nc(-c2cccnc2)no1)NCCc1c[nH]c2ccccc12` the RP-LC retention time was 709 s.

With `CCC(C)N(CCNC(=O)c1cc(C)nn1-c1ccccc1)C1CCCCC1` (stereo unspecified) the RP-LC retention time was 684 s.

With `CCN(CC)CCNc1ncnc2onc(-c3cc(F)cc(F)c3)c12` the RP-LC retention time was 651 s.

`COc1ccc(-n2c(SCc3nc(-c4ccc(C)cc4)no3)nnc2-c2ccncc2)cc1` showed an RP-LC retention time of 1000 s.

`COc1ccccc1N1CCN(S(=O)(=O)c2cc3n(c2)CCCNC3=O)CC1` gave an RP-LC retention time of 696 s.

For `Cn1cc(C2=CCN(C(=O)NCc3cccc(F)c3)CC2)c2cccnc21`, the RP-LC retention time was 791 s.

With `CCOCCCNC(=O)C1CCCN(c2nnc(C)c3c(C)n(-c4ccc(C)cc4)nc23)C1` (stereo unspecified) the RP-LC retention time was 687 s.

For `COc1ccc(-c2ncccc2CNS(=O)(=O)Cc2cc(F)cc(F)c2)cc1`, the RP-LC retention time was 694 s.

`Cc1ccc(Nc2nc(-c3ccc(C)c(C)c3)cs2)nc1` showed an RP-LC retention time of 859 s.

In the case of `COc1ccc(N2CCN(S(=O)(=O)c3cn(C)nc3C)CC2)cc1`, the RP-LC retention time is reported as 719 s.

In the case of `CCN1CCN(c2cc(C(=O)O)c3cc(NC(=O)c4ccc(Br)cc4)ccc3n2)CC1`, the RP-LC retention time is reported as 610 s.

With `CCOc1ccc(CNC(=O)C2CCCN(c3cc(=O)n(C)c(=O)n3C)C2)cc1` (stereo unspecified) the RP-LC retention time was 709 s.

`COCc1noc([C@@H]2CC(F)(F)CN2C(=O)C2CC=CC2)n1` showed an RP-LC retention time of 777 s.

In the case of `O=C(C1CCCN(c2ccc3cc(S(=O)(=O)N4CCCC4)ccc3n2)C1)N1CCc2ccccc21` (stereo unspecified), the RP-LC retention time is reported as 884 s.

Compound `CCNC(=O)C1CCN(Cc2cc3ccccc3n2Cc2ccc(C)cc2)CC1` has an RP-LC retention time of 724 s.

Compound `CCN1C(=O)COc2ccc(-c3csc(NC(=O)c4ccccc4Br)n3)cc21` has an RP-LC retention time of 980 s.

Compound `O=C1CCN(C(=O)C2CCN(C(=O)NC3CCCCC3)CC2)CCCCCCN1` has an RP-LC retention time of 664 s.

For `COc1ccc(C(C)NC(=O)CCc2ccc3c(ccn3C)c2)cc1OC` (stereo unspecified), the RP-LC retention time was 819 s.

For `CCC(C)NC(=O)c1cc(NC(C)=O)cc2nc(C)ccc12` (stereo unspecified), the RP-LC retention time was 575 s.

Work on `COc1nc2ccccc2nc1N1CCCC(C(=O)NC2CCCCCC2)C1` (stereo unspecified) yielded an RP-LC retention time of 1090 s.

For `Cc1cc(=O)n(CC(=O)N2CCN(c3ccc(F)cc3)CC2)c(N2CCOCC2)n1`, the RP-LC retention time was 674 s.

For `COc1cccc(C2C(C(=O)NCCC(C)C)c3ccccc3C(=O)N2C2CC2)c1` (stereo unspecified), the RP-LC retention time was 838 s.

Compound `COCCN1C(=O)CCc2cc(NS(=O)(=O)c3ccccc3Cl)ccc21` has an RP-LC retention time of 771 s.

Compound `CCOc1ccc(-c2nc3ncccn3c2NCc2ccc(Cl)cc2)cc1OC` has an RP-LC retention time of 760 s.

Work on `Cc1ccc(NC(=O)Cn2nc(N3CCCC3)c3ccccc3c2=O)cc1C` yielded an RP-LC retention time of 1000 s.

`CCc1cccc(NC(=O)C2CCCN(S(=O)(=O)c3cn(C(C)C)cn3)C2)c1` (stereo unspecified) gave an RP-LC retention time of 893 s.

In the case of `Cc1[nH]c(=O)[nH]c(=O)c1CCC(=O)Nc1cccc(-c2nc3ccccc3s2)c1`, the RP-LC retention time is reported as 672 s.

`O=C(Cn1nc(N2CCCCCC2)c2ccccc2c1=O)NCc1ccc(F)cc1` gave an RP-LC retention time of 1040 s.

`O=C(Nc1ccccc1Cl)c1cc(C2CC2)n2nccc2n1` gave an RP-LC retention time of 1190 s.

Work on `O=c1c2oc3ccccc3c2ncn1Cc1nc(-c2cccc(Cl)c2)no1` yielded an RP-LC retention time of 1010 s.

`CCOC(=O)c1c(C)n(C)c2ccccc12` showed an RP-LC retention time of 887 s.

For `CC(C)(C)OC(=O)NC1[C@H]2CNC[C@@H]12` (stereo partly specified), the RP-LC retention time was 609 s.

With `CCOc1ccc(NC(=O)N2CCCC2c2cc(C)on2)cc1` (stereo unspecified) the RP-LC retention time was 854 s.

`Cn1c(-c2cccc(C(=O)NCc3ccc(F)cc3F)c2)nc2cccnc21` gave an RP-LC retention time of 743 s.

`CCOC(=O)c1ccc(NS(=O)(=O)c2cc3n(c2)CCN(CC)C3=O)cc1` showed an RP-LC retention time of 744 s.

Work on `Cc1noc(COC2CCCN(C(=O)NCc3ccccc3)C2)n1` (stereo unspecified) yielded an RP-LC retention time of 684 s.

Work on `CCCOc1nn(CCC)cc1C(=O)N1CCCC1` yielded an RP-LC retention time of 700 s.

With `CC(C)CCn1c(CCCC(=O)Nc2ccncc2)nc2cccnc21` the RP-LC retention time was 601 s.

`Cc1ccc(-c2nc(N)n(C(=O)c3ccc(C(C)(C)C)cc3)n2)cc1` showed an RP-LC retention time of 1280 s.

Work on `Cc1cc(F)cc2c(=O)c3c([nH]c12)CCN(CC(=O)Nc1cc(F)cc(F)c1)C3` yielded an RP-LC retention time of 635 s.

Work on `O=C(CSCc1ccccc1)NCC#CCN1CCc2ccccc2C1` yielded an RP-LC retention time of 581 s.

`COc1ccc(NC(=O)Cn2cnc3nc(N4CCC(C(=O)NC5CC5)CC4)sc3c2=O)cc1` gave an RP-LC retention time of 681 s.

`Cc1cc(C(=O)Nc2ccc(F)cc2)nc2ccnn12` gave an RP-LC retention time of 889 s.

`O=C(c1ccc2c(c1)OCO2)N1CC(F)(F)C[C@H]1COc1ccncc1` gave an RP-LC retention time of 615 s.

In the case of `COc1ccc(NS(=O)(=O)c2cc(-c3[nH]ncc3C(=O)N(C)C)oc2C)c(C)c1`, the RP-LC retention time is reported as 681 s.

Compound `COc1ccc(-c2nn3c(CSc4ccccc4)nnc3s2)cc1OC` has an RP-LC retention time of 882 s.

With `N#Cc1cccc(C(=O)NC2CCN(C(=O)C3CC3)C2)c1` (stereo unspecified) the RP-LC retention time was 651 s.

Compound `c1csc(CN2CCC(c3nc(-c4cnccn4)n[nH]3)CC2)c1` has an RP-LC retention time of 555 s.

`COc1ccc(CN2CCC[C@H]2c2nc(C3CCOCC3)n[nH]2)c(Cl)c1OC` gave an RP-LC retention time of 584 s.

Compound `CCCCNC(=O)C1CCN(c2cnn(Cc3ccccc3)c(=O)c2)CC1` has an RP-LC retention time of 752 s.

In the case of `CC(NC(=O)Cc1cn(C)c2ncccc12)c1ccccc1` (stereo unspecified), the RP-LC retention time is reported as 679 s.

Work on `CCOC(=O)c1c(C)[nH]c(C)c1S(=O)(=O)N1CCC(C(=O)N2CCn3c2nc2ccccc23)CC1` yielded an RP-LC retention time of 725 s.

`CCNc1cc(-n2ccnc2)ncn1` showed an RP-LC retention time of 541 s.

Compound `Cc1ccc(CNC(=O)C2(C)CN(S(C)(=O)=O)CC(=O)N2Cc2ccccc2Cl)cc1` (stereo unspecified) has an RP-LC retention time of 901 s.

Compound `Cc1ccc(C2Cn3cnc(C(=O)N4CCC(C(=O)NCCc5ccccc5)CC4)c3CO2)cc1` (stereo unspecified) has an RP-LC retention time of 826 s.

For `O=C1N=C2C(=Nc3ccccc32)C(=O)N1CCN1CCN(c2ccccc2Cl)CC1`, the RP-LC retention time was 743 s.

`CC1(C(=O)NCc2cccc(F)c2)CCCN(S(=O)(=O)c2ccc(F)cc2)C1` (stereo unspecified) showed an RP-LC retention time of 948 s.

`COc1ccc(NC(=O)Cn2c(C)cc(-c3nnc(-c4ccc(F)cc4)o3)c2C)cc1F` showed an RP-LC retention time of 962 s.

Compound `COc1ccccc1Nc1c(-c2ccc(Br)cc2)nc2cnccn12` has an RP-LC retention time of 1080 s.

`O=S(=O)(c1ccccc1)c1cnc2c(N3CCNCC3)cccc2c1` showed an RP-LC retention time of 691 s.

For `COc1cccc(-n2c(N3CCCC(C(=O)NCCN4CCCCC4)C3)nc3ccsc3c2=O)c1` (stereo unspecified), the RP-LC retention time was 632 s.

For `Cc1ccc(CNc2ccc(-c3nc(-c4ccc(F)cc4)no3)cn2)o1`, the RP-LC retention time was 1190 s.

Compound `Cc1ccccc1NC(=O)N1CCC2(C1)C(=O)N(C)c1ccccc12` (stereo unspecified) has an RP-LC retention time of 772 s.

With `Cc1cccc(-c2noc(C3CCCN3C(=O)Nc3ccccc3Cl)n2)c1` (stereo unspecified) the RP-LC retention time was 606 s.

`Cc1cc2c(cc1S(=O)(=O)NC(C)C)N(C(=O)C1CC1)CC2` gave an RP-LC retention time of 808 s.

`CC(C)N1CCn2c(nc3cc(C(=O)NCc4ccc(Cl)cc4)ccc32)C1=O` gave an RP-LC retention time of 741 s.

With `COCCCNC(=O)c1ccc2c(c1)CCCN2S(=O)(=O)c1ccccc1` the RP-LC retention time was 822 s.

For `Cc1nc(-c2cn(C(C)C)c3ncccc23)sc1C(=O)Nc1ccc2c(c1)OCO2`, the RP-LC retention time was 998 s.

For `Cc1cccc(NC(=O)C2CCN(c3nnc4cccc(C)n34)CC2)c1`, the RP-LC retention time was 706 s.

In the case of `CC(=O)N1c2ccc(S(=O)(=O)N3CCCC3C(=O)NCc3ccc4c(c3)OCO4)cc2CC1C` (stereo unspecified), the RP-LC retention time is reported as 779 s.
